Experimental findings from patent publication US9718819B2 (Merck Sharp & Dohme Corp., priority 2012, dated 2017) are described below.

In the assay the target is HIV-1 RT wild-type enzyme (Human immunodeficiency virus type 1 group M subtype B (isolate HXB2) (HIV-1), UniProt P04585). Put plainly: HIV-1 reverse transcriptase inhibitory activity (RT polymerase assay). Type of assay: biochemical. Particulars: HIV-1 RT wild-type enzyme 83 pM; RNA-dependent DNA polymerase activity; read-out: IC50. How it is done:
Determination of HIV-1 Reverse Transcriptase Inhibitory Activity
The heterodimeric nucleic acid substrate used in the HIV-1 RT polymerase reactions was generated by annealing the DNA primer, biotinylated pD500 (Sigma Aldrich, USA, 5′-biotin-ttg aaa tga ctg cgg tac ggc-3′), SEQ ID NO. 1 to the nucleotide RNA template t500 (derived from hepatitis C virus [HCV] sequence, IBA, Germany, 5′-[…]-3′), SEQ ID NO 2). […] The mixture was then preincubated on an orbital shaker for 30 min at room temperature in microtiter plates (Costar 3365, Corning, USA). A polymerization reaction was initiated by the addition of RNA template/pD500 DNA primer hybrid (16.6 nM final of RNA/DNA hybrid) and dNTPs (2 μM dATP, dGTP, dCTP and 66.6 nM Ru-dUTP (Meso Scale Discovery, USA)). Plate was sealed and incubated for 5-10 min at room temperature on an orbital shaker. Plate was then incubated for 90 min at 37° C. and reactions quenched with 60 μl quenching buffer (50 mM EDTA, 0.7% BSA, 0.7% Tween-20, 0.017% sodium azide in PBS). The resulting solution was incubated at room temperature for an additional 5 min and then 50 μL was transferred to pre-blocked Avidin plates (L15AA, Meso Scale Discovery). Each well of Avidin plate was blocked for 1 h at room temperature with 100 μL 5% BSA in PBS. Blocking solution was removed by tapping vigorously on filter paper to remove all excess liquid. Reaction on pre-blocked avidin plate proceeded for 60 min at room temperature and then contents removed by tapping vigorously on filter paper to remove all excess liquid. After washing plate 3 times with 150 μL 1×PBS and blotting dry between cycles, 150 μL 1× Read Buffer T (4× Read Buffer T, Meso Scale Discovery) was added and incubated for 5 min at room temperature before counting on a Sector Imager […] (Meso Scale Discovery). Titration curves and IC50 values were calculated using a four parameter logisitc fit according to standard procedures. Briefly, % Inhibition=100×((sample raw value)−(mean value of the low control or 0% inhibition))/((mean value of wells representing 100% inhbition)−(mean value of 0% inhbition)). In this assay, low control wells contain DMSO (0% inhbition) and 100% inhibition wells contain 1 μM efavirenz.
One may read the IC50 as the concentration that gives 50% inhibition. Consider `CC(F)c1cc(Cn2cnc(C(F)(F)F)c(Oc3cc(Cl)cc(C#N)c3)c2=O)n[nH]c1=O` (stereo not drawn) [Example 15, 3-chloro-5-((1-((5-(1-fluoroethyl)-6-oxo-1,6-dihydropyridazin-3-yl)methyl)-6-oxo-4-(trifluoromethyl)-1,6-dihydropyrimidin-5-yl)oxy)benzonitrile], for which the IC50 stood at 13 nM.
Then `N#Cc1cc(Cl)cc(Oc2c(C(F)(F)F)ncn(Cc3cc(CF)c(=O)[nH]n3)c2=O)c1` [Example 16, 3-chloro-5-((1-((5-(fluoromethyl)-6-oxo-1,6-dihydropyridazin-3-yl)methyl)-6-oxo-4-(trifluoromethyl)-1,6-dihydropyrimidin-5-yl)oxy)benzonitrile], with 12 nM; and `N#Cc1cc(Cl)cc(Oc2c(C(F)(F)F)ncn(Cc3cc(C(O)C4CC4)c(=O)[nH]n3)c2=O)c1` (stereo not drawn) [Example 17, 3-chloro-5-((1-((5-(cyclopropyl(hydroxy)methyl)-6-oxo-1,6-dihydropyridazin-3-yl)methyl)-6-oxo-4-(trifluoromethyl)-1,6-dihydropyrimidin-5-yl)oxy)benzonitrile], with 179 nM; and `N#Cc1cc(Cl)cc(Oc2c(C(F)(F)F)ncn(Cc3ccc(=O)[nH]n3)c2=O)c1Cl` [Example 18, 2,5-dichloro-3-((6-oxo-1-((6-oxo-1,6-dihydropyridazin-3-yl)methyl)-4-(trifluoromethyl)-1,6-dihydropyrimidin-5-yl)oxy)benzonitrile], with 5 nM.
In the case of `N#Cc1cc(F)cc(Oc2c(C(F)(F)F)ncn(Cc3ccc(=O)[nH]n3)c2=O)c1` [Example 19, 3-fluoro-5-((6-oxo-1-((6-oxo-1,6-dihydropyridazin-3-yl)methyl)-4-(trifluoromethyl)-1,6-dihydropyrimidin-5-yl)oxy)benzonitrile], the IC50 is 31 nM.
The same measure for `N#Cc1cc(Oc2c(C(F)(F)F)ncn(Cc3ccc(=O)[nH]n3)c2=O)cc(C(F)(F)F)c1` [Example 20, 3-((6-oxo-1-((6-oxo-1,6-dihydropyridazin-3-yl)methyl)-4-(trifluoromethyl)-1,6-dihydropyrimidin-5-yl)oxy)-5-(trifluoromethyl) benzonitrile]: 24 nM; for `O=c1ccc(Cn2cnc(C(F)(F)F)c(Oc3cc(Cl)cc(C(F)(F)F)c3)c2=O)n[nH]1` [Example 21, 6-((5-(3-chloro-5-(trifluoromethyl)phenoxy)-6-oxo-4-(trifluoromethyl)pyrimidin-1(6H)-yl)methyl)pyridazin-3(2H)-one]: 29 nM.
In the case of `N#Cc1cc(Cl)cc(Oc2c(C(F)(F)F)ncn(Cc3cc(-c4ccccc4)c(=O)[nH]n3)c2=O)c1` [Example 22], the IC50 is 3 nM.
The same measure for `Cn1nc(Cn2cnc(C(F)(F)F)c(Oc3cc(Cl)cc(C#N)c3)c2=O)cc(Br)c1=O` [Example 23]: 38 nM; for `N#Cc1cc(Cl)cc(Oc2c(C(F)(F)F)ncn(Cc3cc(-c4ccc(OC(F)(F)F)cc4)c(=O)[nH]n3)c2=O)c1` [Example 24, 3-chloro-5-((6-oxo-1-((6-oxo-5-(4-(trifluoromethoxy)phenyl)-1,6-dihydropyridazin-3-yl)methyl)-4-(trifluoromethyl)-1,6-dihydropyrimidin-5-yl)oxy)benzonitrile]: 24 nM.
Then `N#Cc1cc(Cl)cc(Oc2c(C(F)(F)F)ncn(Cc3cc(-c4ccccc4F)c(=O)[nH]n3)c2=O)c1` [Example 25, 3-chloro-5-((1-((5-(2-fluorophenyl)-6-oxo-1,6-dihydropyridazin-3-yl)methyl)-6-oxo-4-(trifluoromethyl)-1,6-dihydropyrimidin-5-yl)oxy)benzonitrile], with 9 nM; and `N#Cc1cc(Cl)cc(Oc2c(C(F)(F)F)ncn(Cc3cc(-c4cccc(F)c4)c(=O)[nH]n3)c2=O)c1` [Example 26, 3-chloro-5-((1-((5(3-fluorophenyl)-6-oxo-1,6-dihydropyridazin-3-yl)methyl)-6-oxo-4-(trifluoromethyl)-1,6-dihydropyrimidin-5-yl)oxy)benzonitrile], with 5 nM.
Then `N#Cc1cc(Cl)cc(Oc2c(C(F)(F)F)ncn(Cc3cc(-c4cc(F)cc(Cl)c4)c(=O)[nH]n3)c2=O)c1` [Example 27, 3-chloro-5-((1-((5-(3-chloro-5-fluorophenyl)-6-oxo-1,6-dihydropyridazin-3-yl)methyl)-6-oxo-4-(trifluoromethyl)-1,6-dihydropyrimidin-5-yl)oxy)benzonitrile], with 14 nM; and `N#Cc1cc(Cl)cc(Oc2c(C(F)(F)F)ncn(Cc3cc(-c4ccc(Cl)cc4)c(=O)[nH]n3)c2=O)c1` [Example 28, 3-chloro-5-((1-((5-(4-chlorophenyl)-6-oxo-1,6-dihydropyridazin-3-yl)methyl)-6-oxo-4-(trifluoromethyl)-1,6-dihydropyrimidin-5-yl)oxy)benzonitrile], with 5 nM.
As for `N#Cc1cc(Cl)cc(Oc2c(C(F)(F)F)ncn(Cc3cc(-c4ccc(F)c(F)c4)c(=O)[nH]n3)c2=O)c1` [Example 29, 3-chloro-5-((1-((5-(3,4-difluorophenyl)-6-oxo-1,6-dihydropyridazin-3-yl)methyl)-6-oxo-4-(trifluoromethyl)-1,6-dihydropyrimidin-5-yl)oxy)benzonitrile], the IC50 turned out to be 3 nM.
Turning to `N#Cc1cc(Cl)cc(Oc2c(C(F)(F)F)ncn(Cc3cc(-c4ccc(OC(F)F)cc4)c(=O)[nH]n3)c2=O)c1` [Example 30, 3-chloro-5-((1-((5-(4-(difluoromethoxy)phenyl)-6-oxo-1,6-dihydropyridazin-3-yl)methyl)-6-oxo-4-(trifluoromethyl)-1,6-dihydropyrimidin-5-yl)oxy)benzonitrile], the IC50 amounted to 4 nM.
In the case of `Cc1ccc(-c2cc(Cn3cnc(C(F)(F)F)c(Oc4cc(Cl)cc(C#N)c4)c3=O)n[nH]c2=O)cc1` [Example 31, 3-chloro-5-((6-oxo-1-((6-oxo-5-(p-tolyl)-1,6-dihydropyridazin-3-yl)methyl)-4-(trifluoromethyl)-1,6-dihydropyrimidin-5-yl)oxy)benzonitrile], the IC50 worked out at 5 nM.
With `CC(C)Oc1ccc(-c2cc(Cn3cnc(C(F)(F)F)c(Oc4cc(Cl)cc(C#N)c4)c3=O)n[nH]c2=O)cc1F` [Example 32, 3-chloro-5-((1-((5-(3-fluoro-4-isopropoxyphenyl)-6-oxo-1,6-dihydropyridazin-3-yl)methyl)-6-oxo-4-(trifluoromethyl)-1,6-dihydropyrimidin-5-yl)oxy)benzonitrile], the concentration for half-maximal inhibition (IC50) is 13 nM.
Then `N#Cc1cc(Cl)cc(Oc2c(C(F)(F)F)ncn(Cc3cc(-c4cc(F)cc(F)c4)c(=O)[nH]n3)c2=O)c1` [Example 33, 3-chloro-5-((1-((5-(3,5-difluorophenyl)-6-oxo-1,6-dihydropyridazin-3-yl)methyl)-6-oxo-4-(trifluoromethyl)-1,6-dihydropyrimidin-5-yl)oxy)benzonitrile], with 7 nM; and `N#Cc1cc(Cl)cc(Oc2c(C(F)(F)F)ncn(Cc3cc(-c4ccc(F)c(Cl)c4)c(=O)[nH]n3)c2=O)c1` [Example 34, 3-chloro-5-((1-((5-(3-chloro-4-fluorophenyl)-6-oxo-1,6-dihydropyridazin-3-yl)methyl)-6-oxo-4-(trifluoromethyl)-1,6-dihydropyrimidin-5-yl)oxy)benzonitrile], with 7 nM.
The same measure for `N#Cc1cc(Cl)cc(Oc2c(C(F)(F)F)ncn(Cc3cc(-c4ccc(F)cc4F)c(=O)[nH]n3)c2=O)c1` [Example 35, 3-chloro-5-((1-((5-(2,4-difluorophenyl)-6-oxo-1,6-dihydropyridazin-3-yl)methyl)-6-oxo-4-(trifluoromethyl)-1,6-dihydropyrimidin-5-yl)oxy)benzonitrile]: 8 nM.
`N#Cc1cc(Cl)cc(Oc2c(C(F)(F)F)ncn(Cc3cc(-c4cccc(Cl)c4)c(=O)[nH]n3)c2=O)c1` [Example 36, 3-chloro-5-((1-((5-(3-chlorophenyl)-6-oxo-1,6-dihydropyridazin-3-yl)methyl)-6-oxo-4-(trifluoromethyl)-1,6-dihydropyrimidin-5-yl)oxy)benzonitrile]: the IC50 was 4 nM.
For `Cc1cc(-c2cc(Cn3cnc(C(F)(F)F)c(Oc4cc(Cl)cc(C#N)c4)c3=O)n[nH]c2=O)ccc1F` [Example 37, 3-chloro-5-((1-((5-(4-fluoro-3-methylphenyl)-6-oxo-1,6-dihydropyridazin-3-yl)methyl)-6-oxo-4-(trifluoromethyl)-1,6-dihydropyrimidin-5-yl)oxy)benzonitrile], the IC50 stood at 5 nM.
Then `Cc1cccc(-c2cc(Cn3cnc(C(F)(F)F)c(Oc4cc(Cl)cc(C#N)c4)c3=O)n[nH]c2=O)c1F` [Example 38, 3-chloro-5-((1-((5-(2-fluoro-3-methylphenyl)-6-oxo-1,6-dihydropyridazin-3-yl)methyl)-6-oxo-4-(trifluoromethyl)-1,6-dihydropyrimidin-5-yl)oxy)benzonitrile], with 110 nM.
